# “Also recorded” adds a separate entry of the source. Structures can show the parent of a compound that is named as a salt.
# Experiments:
# SkMC = test: Intracellular concentrations of statins and loratadine at the end of inhibition assays (HPLC-UV)
# Procedure: Instruments used consisted of a SpectraSystem P4000 pump, a SpectraSystem AS3000 autosampler, a Finnigan SpectraSystem UV6000 ultraviolet detector and a SpectraSystem SN4000 System Controller from Thermo Electron Corporation (San Jose, CA, USA). An Agilent Zorbax Column, Eclipse XDB-C8, 4.6 mm × 150 mm (Agilent, Santa Clara, CA, USA) was used at a temperature of 40 °C. An isocratic mobile phase contained 10 mM ammonium formate pH 3 and acetonitrile with varying proportions, at a flow rate of 1.0 mL/min. Details for mobile phase proportions, internal standards and monitored UV wavelengths are listed in Supplementary Table S1.
# After the final incubation, cells were washed twice with PBS 10% methanol and once with PBS alone. The cells were lysed with methanol containing appropriate internal standards for the compounds of interest, then transferred and centrifuged for 10 min at room temperature. The supernatant was transferred to a culture borosilicate glass tube, evaporated and reconstituted in 100 µL of 10 mM ammonium formate pH 3 and acetonitrile (50:50 v/v). A volume of 20 µL per sample was injected. The ChromQuest Version 4.2.34 software was used for data acquisition.
# [1] = test system: L-lactic acid influx transport in SkMC; test: Kinetic parameters of L-lactic acid influx transport in SkMC; format: cell-based, human
# Procedure: After differentiation, and before the beginning of the transport experiments, cells were washed, and the medium replaced with HEPES (pH 7.4; 1 mL) buffer. Transport assays, including the pre-incubation period in HEPES, were performed at 37 °C. Assay conditions were previously optimized by standard incubations with L-lactic acid (e.g., incubation times). […] Assessment of influx transport. […] The suspension was passed through 27½ G needle 3-times. […] L-lactic acid concentrations.
# [2] = parameters: method as in PMID 16453090; details: Primo study; cited from earlier work
# [3] = test system: MCT-mediated efflux transport of L-lactic acid (MCT1 and 4); test: Inhibition of L-lactic acid efflux in SkMC (intracellular [14C] L-lactic acid accumulation); format: cell-based, human; details: for Inhibitory effect on L-lactic acid efflux (in words): 0.25 to 300 µM
# Procedure: Assessment of efflux transport. A similar approach was used to measure efflux transport of L-lactic acid. For these experiments, distribution equilibrium of L-lactic acid was reached by adding MES or HEPES (pH 7.0 or 7.4; 1 mL) containing 6 mM [^14C] L-lactic acid (0.2 µCi/mL). After 10 min (to allow L-lactic acid to reach equilibrium), MES or HEPES buffer containing [^14C] L-lactic acid was replaced by L-lactic acid-free buffer for 2.5 min. Transport was stopped by placing culture plates on ice, rapidly aspirating the media and cells were washed 3-times with ice-cold HEPES buffer. Cellular radioactivity levels were determined as previously described in the Method section (Assessment of influx transport).
# At the beginning of the experiment (t = 0), medium was replaced by HEPES (pH 7.4; 1 mL) buffer to wash cells. After removing the wash buffer, cells were loaded with [^14C] L-lactic acid (6 mM, 0.2 µCi/mL) in MES or HEPES buffer (pH 7.0 or pH 7.4). Briefly, following pre-incubation of cells in buffer containing [^14C] L-lactic acid for 10 min (to allow L-lactic acid to reach equilibrium), the buffer was replaced by a buffer containing [^14C] L-lactic acid and the potential inhibitor. This mixture was incubated for an additional 3 min in order to allow diffusion of the inhibitor in the cells without perturbing L-lactic acid equilibrium. Then, cells were washed once rapidly with buffer containing the tested inhibitors or vehicle, but without L-lactic acid. In the final step, the tested inhibitors or vehicle were added to the L-lactic acid-free buffer and incubated for 2.5 min as described previously for the assessment of the efflux transport. Culture plates were placed on ice to stop the reaction. Inhibition of L-lactic acid efflux was determined by measuring intracellular [^14C] L-lactic acid concentration.
# [4] = test system: MCT-mediated efflux transport of L-lactic acid (MCT1 and 4); test: L-lactic acid efflux inhibition after six-day pretreatment of SkMC; format: cell-based, human; details: inhibitor 300 µM
# Procedure: At the beginning of the experiment (t = 0), medium was replaced by HEPES (pH 7.4; 1 mL) buffer to wash cells. […] Then, cells were washed once rapidly with buffer containing the tested inhibitors or vehicle, but without L-lactic acid. […] Culture plates were placed on ice to stop the reaction. Inhibition of L-lactic acid efflux was determined by measuring intracellular [^14C] L-lactic acid concentration.
compound,measurement,setting,value
CCOC(=O)N1CCC(=C2c3ccc(Cl)cc3CCc3cccnc32)CC1 [Loratadine],Effect of pH on intracellular accumulation of the drug,"SkMC; SkMC, pH 7.0 compared to pH 7.4",did not affect
"C[C@H](O)C(=O)O [L-lactic acid, L-lactic acid sodium salt]",Km,[1]; pH 7.0,17 mM
same,Vmax of L-lactic acid influx transport,[1]; pH 7.0,90 nmol/min/mg protein
same,Km,[1]; pH 7.4,23 mM
same,Vmax of L-lactic acid influx transport,[1]; pH 7.4,82 nmol/min/mg protein
CC(C)c1c(C(=O)Nc2ccccc2)c(-c2ccccc2)c(-c2ccc(F)cc2)n1CC[C@@H](O)C[C@@H](O)CC(=O)O [Atorvastatin],Rate of patients experiencing muscular discomfort,[2],14.9%
CC(C)c1nc(N(C)S(C)(=O)=O)nc(-c2ccc(F)cc2)c1/C=C/[C@@H](O)C[C@@H](O)CC(=O)O [rosuvastatin],Inhibitory effect on L-lactic acid efflux (in words),[3]; SkMC,No L-lactic acid efflux inhibition; also recorded: No significant inhibitory effect
same,Inhibitory effect on L-lactic acid transport (in words),"[3]; SkMC, pH 7.0",no significant inhibitory effect
same,Uptake of the drug in SkMC,SkMC,did not have a significant uptake
O=C(CCc1ccc(O)cc1)c1c(O)cc(O)cc1O [phloretin],Maximal intracellular L-lactic acid augmentation,"[3]; SkMC, pH 7.0, 1 to 300 µM tested",2.1 fold
same,Maximal intracellular L-lactic acid augmentation,"[3]; SkMC, pH 7.4, 1 to 300 µM tested",2.2 fold
"CCC(C)(C)C(=O)O[C@H]1C[C@@H](C)C=C2C=C[C@H](C)[C@H](CC[C@@H](O)C[C@@H](O)CC(=O)O)[C@H]21 [Simvastatin hydroxy acid, simvastatin hydroxyl acid ammonium salt]",Intracellular lactic acid increase,[3]; SkMC (abstract),25–35%
same,Maximal increase of intracellular L-lactic acid,"[3]; SkMC, 300 µM inhibitor",35%
same,Inhibitory effect on L-lactic acid efflux (in words),[3]; SkMC,weak inhibitory potency
same,Intracellular L-Lactic Acid Increase (%),"[4]; no pretreatment (Control), pH 7.4",65%
same,Intracellular L-Lactic Acid Increase (%),"[4]; six-day pretreatment 0.033 µM, pH 7.0",103%
same,Intracellular L-Lactic Acid Increase (%),"[4]; six-day pretreatment 0.033 µM, pH 7.4",51%
same,Intracellular L-Lactic Acid Increase (%),"[4]; six-day pretreatment 0.1 µM, pH 7.0",31%
same,Intracellular L-Lactic Acid Increase (%),"[4]; six-day pretreatment 0.1 µM, pH 7.4",35%

# Reference: article PMC5750648, “Study of Statin- and Loratadine-Induced Muscle Pain Mechanisms Using Human Skeletal Muscle Cells” (Pharmaceutics, 2017)
